Positions of bridges follow the written chain, without caps; N, C: chain ends. Non-standard residues stand in square brackets, D forms with d. Residues, ends and D or L forms follow the SMILES beside them. Trp(1-CH2COOH) = N[C@@H](Cc1cn(CC(=O)O)c2ccccc12)C(=O)O; Phe(4-Cl) = N[C@@H](Cc1ccc(Cl)cc1)C(=O)O; Phe(4-F) = N[C@@H](Cc1ccc(F)cc1)C(=O)O; Phe(4-Me) = Cc1ccc(C[C@H](N)C(=O)O)cc1; Hyp = O=C(O)[C@@H]1C[C@@H](O)CN1; Aad = N[C@@H](CCCC(=O)O)C(=O)O; NMeNle = CCCC[C@H](NC)C(=O)O; Pip = O=C(O)[C@@H]1CCCCN1; Orn = NCCC[C@H](N)C(=O)O; Dab = NCC[C@H](N)C(=O)O; Dap = NC[C@H](N)C(=O)O

The experiment concerns the target T1, PD-1-Ig binding to PD-L1-TVMV-His (PD-L1-His) (Homo sapiens, UniProt Q9NZQ7).
T1 construct: hPDL1(19-239)-TVMV-His; made in house; host or cells: HEK293T cells
The experiment can be described thus: PD-1/PD-L1 Homogenous Time-Resolved Fluorescence (HTRF) binding assay. As to conditions: PD-1-Ig (20 nM) / PD-L1-His (10 nM); range classes. A digest of the protocol: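 HTRF competition: compound pre-incubated 15 min with PD-L1-His (10 nM final), then PD-1-Ig (20 nM final) added for 15 min in dPBS, 0.1% BSA, 0.05% Tween-20. Detection with Eu-cryptate anti-Ig (1 nM) and APC anti-His (20 nM) antibodies.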
For orientation: Time-resolved FRET reads energy transfer from a long-lived donor to a nearby acceptor.

T1 sequence (Q9NZQ7 with tags, fused parts or gaps): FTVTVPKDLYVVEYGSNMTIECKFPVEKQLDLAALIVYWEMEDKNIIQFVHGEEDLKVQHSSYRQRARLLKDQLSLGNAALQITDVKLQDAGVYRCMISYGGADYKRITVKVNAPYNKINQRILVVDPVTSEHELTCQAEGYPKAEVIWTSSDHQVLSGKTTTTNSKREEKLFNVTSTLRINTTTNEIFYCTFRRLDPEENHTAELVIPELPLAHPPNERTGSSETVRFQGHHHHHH

What is called IC50 is the concentration that gives 50% inhibition. High values mean weaker potency in that assay, low ones greater potency in that assay. In the case of `CCCC[C@H]1C(=O)N(C)[C@@H](CCCC)C(=O)N[C@@H](CC(C)C)C(=O)NCCC[C@H](N)C(=O)N[C@@H](Cc2ccc(O)cc2)C(=O)N2CCCC[C@H]2C(=O)N[C@@H](CC(N)=O)C(=O)N2CCC[C@H]2C(=O)N[C@@H](CN)C(=O)N[C@@H](CC(C)C)C(=O)N2C[C@H](O)C[C@H]2C(=O)N[C@@H](Cc2c[nH]c3ccccc23)C(=O)N[C@@H](CCN)C(=O)N[C@@H](Cc2cn(CC(=O)O)c3ccccc23)C(=O)N1C` [Example 10517] (H-[Orn]Y[Pip]NP[Dap]L[Hyp]W[Dab][Trp(1-CH2COOH)][NMeNle][NMeNle]L; lactam 1-C), the IC50 fell in the range of 0.01 to 0.099 µM. Then `CCCC[C@H]1C(=O)N(C)[C@@H](CCCC)C(=O)N[C@@H](CC(C)C)C(=O)NCCC[C@H](N)C(=O)N[C@@H](Cc2ccc(OC)cc2)C(=O)N2CCCC[C@H]2C(=O)N[C@@H](CC(N)=O)C(=O)N2CCC[C@H]2C(=O)N[C@@H](CN)C(=O)N[C@@H](CC(C)C)C(=O)N2C[C@H](O)C[C@H]2C(=O)N[C@@H](Cc2c[nH]c3ccccc23)C(=O)N[C@@H](CCN)C(=O)N[C@@H](Cc2cn(CC(=O)O)c3ccccc23)C(=O)N1C` [Example 10518] (H-[Orn]Y(Me)[Pip]NP[Dap]L[Hyp]W[Dab][Trp(1-CH2COOH)][NMeNle][NMeNle]L; lactam 1-C), with 0.01 to 0.099 µM; and `CCCC[C@H]1C(=O)N(C)[C@@H](CCCC)C(=O)N[C@@H](CC(C)C)C(=O)NCCC[C@H](N)C(=O)N[C@@H](Cc2ccc(C)cc2)C(=O)N2CCCC[C@H]2C(=O)N[C@@H](CC(N)=O)C(=O)N2CCC[C@H]2C(=O)N[C@@H](CN)C(=O)N[C@@H](CC(C)C)C(=O)N2C[C@H](O)C[C@H]2C(=O)N[C@@H](Cc2c[nH]c3ccccc23)C(=O)N[C@@H](CCN)C(=O)N[C@@H](Cc2cn(CC(=O)O)c3ccccc23)C(=O)N1C` [Example 10519] (H-[Orn][Phe(4-Me)][Pip]NP[Dap]L[Hyp]W[Dab][Trp(1-CH2COOH)][NMeNle][NMeNle]L; lactam 1-C), with 0.01 to 0.099 µM; and `CCCC[C@H]1C(=O)N(C)[C@@H](CCCC)C(=O)N[C@@H](CC(C)C)C(=O)N[C@H](C(N)=O)CCCC(=O)N[C@@H](Cc2ccc(O)cc2)C(=O)N2CCCC[C@H]2C(=O)N[C@@H](CC(N)=O)C(=O)N2CCC[C@H]2C(=O)N[C@@H](CN)C(=O)N[C@@H](CCC(=O)O)C(=O)N2C[C@H](O)C[C@H]2C(=O)N[C@@H](Cc2c[nH]c3ccccc23)C(=O)N[C@@H](CCN)C(=O)N[C@@H](Cc2cn(CC(=O)O)c3ccccc23)C(=O)N1C` [Example 10520] (Y[Pip]NP[Dap]E[Hyp]W[Dab][Trp(1-CH2COOH)][NMeNle][NMeNle]L[Aad]-NH2; lactam N-14), with 0.01 to 0.099 µM.

In turn, `CCCC[C@H]1C(=O)N(C)[C@@H](CCCC)C(=O)N[C@@H](CC(C)C)C(=O)N[C@H](C(N)=O)CCCC(=O)N[C@@H](Cc2ccc(C)cc2)C(=O)N2CCCC[C@H]2C(=O)N[C@@H](CC(N)=O)C(=O)N2CCC[C@H]2C(=O)N[C@@H](CN)C(=O)N[C@@H](CCC(=O)O)C(=O)N2C[C@H](O)C[C@H]2C(=O)N[C@@H](Cc2c[nH]c3ccccc23)C(=O)N[C@@H](CCN)C(=O)N[C@@H](Cc2cn(CC(=O)O)c3ccccc23)C(=O)N1C` [Example 10521] ([Phe(4-Me)][Pip]NP[Dap]E[Hyp]W[Dab][Trp(1-CH2COOH)][NMeNle][NMeNle]L[Aad]-NH2; lactam N-14) yielded an IC50 of 0.01 to 0.099 µM. Then `CCCC[C@H]1C(=O)N(C)[C@@H](CCCC)C(=O)N[C@@H](CC(C)C)C(=O)N[C@H](C(N)=O)CCCC(=O)N[C@@H](Cc2ccc(OC)cc2)C(=O)N2CCCC[C@H]2C(=O)N[C@@H](CC(N)=O)C(=O)N2CCC[C@H]2C(=O)N[C@@H](CN)C(=O)N[C@@H](CCC(=O)O)C(=O)N2C[C@H](O)C[C@H]2C(=O)N[C@@H](Cc2c[nH]c3ccccc23)C(=O)N[C@@H](CCN)C(=O)N[C@@H](Cc2cn(CC(=O)O)c3ccccc23)C(=O)N1C` [Example 10522] (Y(Me)[Pip]NP[Dap]E[Hyp]W[Dab][Trp(1-CH2COOH)][NMeNle][NMeNle]L[Aad]-NH2; lactam N-14), with 0.01 to 0.099 µM; and `CCCC[C@H]1C(=O)N(C)[C@@H](CCCC)C(=O)N[C@@H](CC(C)C)C(=O)N[C@H](C(N)=O)CCCC(=O)N[C@@H](Cc2ccc(OC)cc2)C(=O)N2CCCC[C@H]2C(=O)N[C@@H](CC(N)=O)C(=O)N2CCC[C@H]2C(=O)N[C@@H](CN)C(=O)N[C@@H](CC(C)C)C(=O)N2C[C@H](O)C[C@H]2C(=O)N[C@@H](Cc2c[nH]c3ccccc23)C(=O)N[C@@H](CCN)C(=O)N[C@@H](Cc2cn(CC(=O)O)c3ccccc23)C(=O)N1C` [Example 10525] (Y(Me)[Pip]NP[Dap]L[Hyp]W[Dab][Trp(1-CH2COOH)][NMeNle][NMeNle]L[Aad]-NH2; lactam N-14), with 0.01 to 0.099 µM. The figure for `CCCC[C@H]1C(=O)N(C)[C@@H](CCCC)C(=O)N[C@@H](CC(C)C)C(=O)N[C@H](C(N)=O)CCCC(=O)N[C@@H](Cc2ccc(F)cc2)C(=O)N2CCCC[C@H]2C(=O)N[C@@H](CC(N)=O)C(=O)N2CCC[C@H]2C(=O)N[C@@H](CN)C(=O)N[C@@H](CC(C)C)C(=O)N2C[C@H](O)C[C@H]2C(=O)N[C@@H](Cc2c[nH]c3ccccc23)C(=O)N[C@@H](CCN)C(=O)N[C@@H](Cc2cn(CC(=O)O)c3ccccc23)C(=O)N1C` [Example 10526] ([Phe(4-F)][Pip]NP[Dap]L[Hyp]W[Dab][Trp(1-CH2COOH)][NMeNle][NMeNle]L[Aad]-NH2; lactam N-14) is 0.01 to 0.099 µM; for `CCCC[C@H]1C(=O)N(C)[C@@H](CCCC)C(=O)N[C@@H](CC(C)C)C(=O)N[C@H](C(N)=O)COCC(=O)N[C@@H](Cc2ccc(C)cc2)C(=O)N2CCCC[C@H]2C(=O)N[C@@H](CC(N)=O)C(=O)N2CCC[C@H]2C(=O)N[C@@H](CN)C(=O)N[C@@H](CC(C)C)C(=O)N2C[C@H](O)C[C@H]2C(=O)N[C@@H](Cc2c[nH]c3ccccc23)C(=O)N[C@@H](CCN)C(=O)N[C@@H](Cc2cn(CC(=O)O)c3ccccc23)C(=O)N1C` [Example 10527] it is 0.01 to 0.099 µM. Then `CCCC[C@H]1C(=O)N(C)[C@@H](CCCC)C(=O)N[C@@H](CC(C)C)C(=O)N[C@H](C(N)=O)COCC(=O)N[C@@H](Cc2ccc(OC)cc2)C(=O)N2CCCC[C@H]2C(=O)N[C@@H](CC(N)=O)C(=O)N2CCC[C@H]2C(=O)N[C@@H](CN)C(=O)N[C@@H](CC(C)C)C(=O)N2C[C@H](O)C[C@H]2C(=O)N[C@@H](Cc2c[nH]c3ccccc23)C(=O)N[C@@H](CCN)C(=O)N[C@@H](Cc2cn(CC(=O)O)c3ccccc23)C(=O)N1C` [Example 10528], with 0.01 to 0.099 µM. `CCCC[C@H]1C(=O)N(C)[C@@H](CCCC)C(=O)N[C@@H](CC(C)C)C(=O)N[C@H](C(N)=O)COCC(=O)N[C@@H](Cc2ccc(F)cc2)C(=O)N2CCCC[C@H]2C(=O)N[C@@H](CC(N)=O)C(=O)N2CCC[C@H]2C(=O)N[C@@H](CN)C(=O)N[C@@H](CC(C)C)C(=O)N2C[C@H](O)C[C@H]2C(=O)N[C@@H](Cc2c[nH]c3ccccc23)C(=O)N[C@@H](CCN)C(=O)N[C@@H](Cc2cn(CC(=O)O)c3ccccc23)C(=O)N1C` [Example 10529] came in with an IC50 of 0.01 to 0.099 µM. The figure for `CCCC[C@H]1C(=O)N(C)[C@@H](CCCC)C(=O)N[C@@H](CC(C)C)C(=O)N[C@H](C(N)=O)COCC(=O)N[C@@H](Cc2ccc(OC)cc2)C(=O)N2CCCC[C@H]2C(=O)N[C@@H](CC(N)=O)C(=O)N2CCC[C@H]2C(=O)N[C@@H](CN)C(=O)N[C@@H](CCC(=O)O)C(=O)N2C[C@H](O)C[C@H]2C(=O)N[C@@H](Cc2c[nH]c3ccccc23)C(=O)N[C@@H](CCN)C(=O)N[C@@H](Cc2cn(CC(=O)O)c3ccccc23)C(=O)N1C` [Example 10530] is 0.001 to 0.0099 µM; for `CCCC[C@H]1C(=O)N(C)[C@@H](CCCC)C(=O)N[C@@H](CC(C)C)C(=O)N[C@H](C(N)=O)COCC(=O)N[C@@H](Cc2ccc(F)cc2)C(=O)N2CCCC[C@H]2C(=O)N[C@@H](CC(N)=O)C(=O)N2CCC[C@H]2C(=O)N[C@@H](CN)C(=O)N[C@@H](CCC(=O)O)C(=O)N2C[C@H](O)C[C@H]2C(=O)N[C@@H](Cc2c[nH]c3ccccc23)C(=O)N[C@@H](CCN)C(=O)N[C@@H](Cc2cn(CC(=O)O)c3ccccc23)C(=O)N1C` [Example 10531] it is 0.001 to 0.0099 µM; for `CCCC[C@H]1C(=O)N(C)[C@@H](CCCC)C(=O)N[C@@H](CC(C)C)C(=O)N[C@H](C(N)=O)CCCC(=O)N[C@@H](Cc2ccc(F)cc2)C(=O)N2CCCC[C@H]2C(=O)N[C@@H](CC(N)=O)C(=O)N2CCC[C@H]2C(=O)N[C@@H](CN)C(=O)N[C@@H](CCC(=O)O)C(=O)N2C[C@H](O)C[C@H]2C(=O)N[C@@H](Cc2c[nH]c3ccccc23)C(=O)N[C@@H](CCN)C(=O)N[C@@H](Cc2cn(CC(=O)O)c3ccccc23)C(=O)N1C` [Example 10532] ([Phe(4-F)][Pip]NP[Dap]E[Hyp]W[Dab][Trp(1-CH2COOH)][NMeNle][NMeNle]L[Aad]-NH2; lactam N-14) it is 0.001 to 0.0099 µM. `CCCC[C@H]1C(=O)N(C)[C@@H](CCCC)C(=O)N[C@@H](CC(C)C)C(=O)N[C@H](C(N)=O)COCC(=O)N[C@@H](Cc2ccc(O)cc2)C(=O)N2CCCC[C@H]2C(=O)N[C@@H](CC(N)=O)C(=O)N2CCC[C@H]2C(=O)N[C@@H](CN)C(=O)N[C@@H](CC(C)C)C(=O)N2C[C@H](O)C[C@H]2C(=O)N[C@@H](Cc2c[nH]c3ccccc23)C(=O)N[C@@H](CCN)C(=O)N[C@@H](Cc2cn(CC(=O)O)c3ccccc23)C(=O)N1C` [Example 10533] registered an IC50 of 0.001 to 0.0099 µM. The figure for `CCCC[C@H]1C(=O)N(C)[C@@H](CCCC)C(=O)N[C@@H](CC(C)C)C(=O)N[C@H](C(N)=O)CCCC(=O)N[C@@H](Cc2ccc(Cl)cc2)C(=O)N2CCCC[C@H]2C(=O)N[C@@H](CC(N)=O)C(=O)N2CCC[C@H]2C(=O)N[C@@H](CN)C(=O)N[C@@H](CC(C)C)C(=O)N2C[C@H](O)C[C@H]2C(=O)N[C@@H](Cc2c[nH]c3ccccc23)C(=O)N[C@@H](CCN)C(=O)N[C@@H](Cc2cn(CC(=O)O)c3ccccc23)C(=O)N1C` [Example 10534] ([Phe(4-Cl)][Pip]NP[Dap]L[Hyp]W[Dab][Trp(1-CH2COOH)][NMeNle][NMeNle]L[Aad]-NH2; lactam N-14) is 0.001 to 0.0099 µM.

These data come from US9732119B2, “Immunomodulators” (BRISTOL-MYERS SQUIBB COMPANY, priority 2014, dated 2017).
